This is an account of results in patent US8895558B2, “Arylpiperazine-containing pyrrole 3-carboxamide derivatives for treating depressive disorders” (Green Cross Corporation, priority 2008, dated 2014).

For orientation: IC50 means the midpoint of a concentration-inhibition curve.

Where a name gives a salt, the structure may show the parent alone.

The target in assay [1] is T1, human recombinant 5-HT2C receptor (Homo sapiens, UniProt P28335).
T1 construct: purchased PerkinElmer
T1 sequence (P28335 33-458): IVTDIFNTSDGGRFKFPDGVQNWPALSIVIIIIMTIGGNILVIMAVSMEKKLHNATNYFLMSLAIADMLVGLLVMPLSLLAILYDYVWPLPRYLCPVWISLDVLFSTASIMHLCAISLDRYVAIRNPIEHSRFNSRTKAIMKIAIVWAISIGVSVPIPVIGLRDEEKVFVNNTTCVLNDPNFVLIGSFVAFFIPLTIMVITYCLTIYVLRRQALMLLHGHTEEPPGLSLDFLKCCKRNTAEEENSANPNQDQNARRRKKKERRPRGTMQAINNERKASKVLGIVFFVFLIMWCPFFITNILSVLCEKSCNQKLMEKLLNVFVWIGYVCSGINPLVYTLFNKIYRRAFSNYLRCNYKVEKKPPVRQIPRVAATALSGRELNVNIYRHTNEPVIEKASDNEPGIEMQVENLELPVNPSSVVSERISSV
Kind of assay: Binding affinity for serotonin 5-HT2C receptor ([3H]Mesulergine). To be noted: CHO-K1 membranes, 1.3 nM [3H]Mesulergine. The essentials: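 Competition binding with [3H]mesulergine; nonspecific binding defined with 100 uM mianserin. Incubation 60 min at 27, stopped by rapid filtration onto glass fiber filters presoaked in 0.5% PEI.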

The target in assay [2] is T2, human recombinant serotonin 5-HT2A receptor (Homo sapiens, UniProt P28223).
T2 construct: purchased PerkinElmer Life and Analytical Sciences, USA; host or cells: CHO-K1
Nature of the assay: Binding affinity for serotonin 5-HT2A receptor ([3H]Ketanserin). To be noted: CHO-K1 expressed receptor, 1 nM [3H]Ketanserin. The essentials:
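Membranes from CHO-K1 cells expressing recombinant receptor (5 ug/well) incubated 60 min at 27 with 1 nM [3H]ketanserin in 50 mM Tris-HCl pH 7.4, 4 mM CaCl2, 0.1% ascorbic acid; mianserin 20 uM defined nonspecific binding. Filtration and counting; IC50 by nonlinear regression over 7-8 concentrations in duplicate.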

Assay [3] has as its target T3, human serotonin transporter (Homo sapiens, UniProt P31645).
T3 construct: purchased PerkinElmer; host or cells: HEK-293
Nature of the assay: Binding affinity for serotonin transporter ([3H]Imipramine). To be noted: HEK-293 membranes, 2 nM [3H]Imipramine. In outline:
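Membranes from HEK-293 cells expressing human serotonin transporter (5 ug/well) incubated with compound and 2 nM [3H]imipramine in 50 mM Tris-HCl pH 7.4, 120 mM NaCl, 5 mM KCl, 30 min at 27. Bound ligand separated by filtration onto glass fiber filters presoaked in 0.5% PEI, washed with ice-cold Tris-HCl/0.9% NaCl.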

T2 sequence (P28223 whole entry): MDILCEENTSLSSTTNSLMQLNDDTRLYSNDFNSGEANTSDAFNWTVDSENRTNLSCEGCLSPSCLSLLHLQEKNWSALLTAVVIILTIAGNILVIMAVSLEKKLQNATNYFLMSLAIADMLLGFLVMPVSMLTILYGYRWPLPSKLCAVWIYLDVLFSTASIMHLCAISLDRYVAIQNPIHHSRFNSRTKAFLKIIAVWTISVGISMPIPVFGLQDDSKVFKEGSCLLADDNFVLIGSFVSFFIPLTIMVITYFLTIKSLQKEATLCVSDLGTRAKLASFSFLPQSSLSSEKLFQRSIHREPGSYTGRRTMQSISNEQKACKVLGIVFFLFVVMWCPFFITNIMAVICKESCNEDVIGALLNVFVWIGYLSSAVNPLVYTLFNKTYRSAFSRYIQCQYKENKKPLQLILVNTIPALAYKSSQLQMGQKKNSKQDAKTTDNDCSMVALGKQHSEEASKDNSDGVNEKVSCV
T3 sequence (P31645 whole entry): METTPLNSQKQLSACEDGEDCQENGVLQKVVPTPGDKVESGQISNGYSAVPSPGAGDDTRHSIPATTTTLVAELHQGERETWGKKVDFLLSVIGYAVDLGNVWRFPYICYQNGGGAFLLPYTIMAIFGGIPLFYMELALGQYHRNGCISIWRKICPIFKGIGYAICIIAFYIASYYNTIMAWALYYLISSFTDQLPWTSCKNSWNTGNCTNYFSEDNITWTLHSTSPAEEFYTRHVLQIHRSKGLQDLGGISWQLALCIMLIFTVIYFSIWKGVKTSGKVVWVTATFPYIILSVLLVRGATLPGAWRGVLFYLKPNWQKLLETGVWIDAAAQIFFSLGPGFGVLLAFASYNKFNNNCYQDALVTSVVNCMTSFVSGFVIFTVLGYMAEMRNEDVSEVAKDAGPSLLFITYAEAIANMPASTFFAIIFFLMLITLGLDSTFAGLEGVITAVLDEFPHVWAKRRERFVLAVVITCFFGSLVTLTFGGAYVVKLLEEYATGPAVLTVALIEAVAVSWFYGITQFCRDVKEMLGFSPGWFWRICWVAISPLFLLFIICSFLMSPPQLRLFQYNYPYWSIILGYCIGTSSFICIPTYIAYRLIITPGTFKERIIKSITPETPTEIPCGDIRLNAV

Regarding `Cc1c(C(=O)NCCCN2CCN(c3cccc(Cl)c3Cl)CC2)cc(-c2ccccc2)n1Cc1ccccc1` [Example 19, 1-Benzyl-N-(3-(4-(2,3-dichlorophenyl)piperazin-1-yl)propyl)-2-methyl-5-phenyl-1H-pyrrole-3-carboxamide], the IC50 in assay [1] was 220 nM; in assay [2], 354 nM; in assay [3], 125 nM.

In the case of `CCCn1c(-c2ccccc2)cc(C(=O)NCCCN2CCN(c3ccccc3OC)CC2)c1C` [Example 84, N-(3-(4-(2-Methoxyphenyl)piperazin-1-yl)propyl)-2-methyl-5-phenyl-1-propyl-1H-pyrrole-3-carboxamide], the IC50 in assay [1] was 1410 nM; in assay [2] it was 953 nM; in assay [3] it was 1080 nM.

With `Cc1[nH]c(-c2ccc(Cl)cc2)cc1C(=O)NCCN1CCN(c2cccc(Cl)c2Cl)CC1` [Example 67, 5-(4-chlorophenyl)-N-(2-(4-(2,3-dichlorophenyl)piperazin-1-ypethyl)-2-methyl-1H-pyrrole-3-carboxamide hydrochloride], the IC50 in assay [1] was found to be 23 nM; in assay [2] it was 100 nM; in assay [3] it was 233 nM.

Turning to `Cc1cccc(N2CCN(CCCCNC(=O)c3cc(-c4ccccc4)[nH]c3C)CC2)c1C` [Example 40, N-(4-(4-(2,3-dimethylphenyl)piperazin-1-yl)butyl)-2-methyl-5-phenyl-1H-pyrrole-3-carboxamide hydrochloride], the IC50 in assay [1] was found to be 63 nM; in assay [2], 10 nM; in assay [3], 21 nM.

With `C=CCCc1cc(C(=O)NCCCN2CCN(c3cccc(Cl)c3Cl)CC2)c(C)n1C` [Example 136, 5-(but-3-enyl)-N-(3-(4-(2,3-dichlorophenyl)piperazin-1-yl)propyl)-1,2-dimethyl-1H-pyrrole-3-carboxamide], the half-maximal inhibitory concentration (IC50) in assay [1] is 173 nM; in assay [2], 108 nM; in assay [3], 347 nM.

`Cc1c(C(=O)NCCCCN2CCN(c3cccc(Cl)c3Cl)CC2)cc(-c2ccccc2)n1C` [Example 36, N-(4-(4-(2,3-dichlorophenyl)piperazin-1-yl)butyl)-1,2-dimethyl-5-phenyl-1H-pyrrole-3-carboxamide hydrochloride]: the IC50 in assay [1] is 32 nM; in assay [2], 28 nM; in assay [3], 93 nM.

With `Cc1[nH]c(-c2ccc(Cl)cc2)cc1C(=O)NCCCCN1CCN(c2cccc(Cl)c2Cl)CC1` [Example 47, 5-(4-chlorophenyl)-N-(4-(4-(2,3-dichlorophenyl)piperazin-1-yl)butyl)-2-methyl-1H-pyrrole-3-carboxamide hydrochloride], the figures for the IC50 in assay [1], in assay [2] and in assay [3] were 62 nM, 56 nM and 122 nM, respectively.

`Cc1c(C(=O)NCCCN2CCN(c3cccc(Cl)c3)CC2)cc(-c2ccccc2)n1-c1ccc(F)cc1` [Example 14, N-(3-(4-(3-chlorophenyl)piperazin-1-yl)propyl)-1-(4-fluorophenyl)-2-methyl-5-phenyl-1H-pyrrole-3-carboxamide]: the results for the 50% inhibitory concentration (IC50) in assay [1], in assay [2] and in assay [3] were 443 nM, 22.9 nM and 80.2 nM, respectively.

Turning to `CCn1c(-c2ccc(Cl)cc2)cc(C(=O)NCCN2CCN(c3cccc(Cl)c3Cl)CC2)c1C` [Example 69, 5-(4-chlorophenyl)-N-(2-(4-(2,3-dichlorophenyl)piperazin-1-ypethyl)-1-ethyl-2-methyl-1H-pyrrole-3-carboxamide hydrochloride], the values for the half-inhibitory concentration (IC50) in assay [1], in assay [2] and in assay [3] were 29 nM, 412 nM and 220 nM, respectively.

With `Cc1[nH]c(-c2ccc(Cl)cc2)cc1C(=O)NCCCN1CCN(c2cccc(Cl)c2Cl)CC1` [Example 45, 5-(4-chlorophenyl)-N-(3-(4-(2,3-dichlorophenyl)piperazin-1-yl)propyl)-2-methyl-1H-pyrrole-3-carboxamide hydrochloride], the IC50 in assay [1] amounted to 106 nM; in assay [2] it was 105 nM; in assay [3], 56 nM.

In the case of `Cc1c(C(=O)NCCCN2CCN(c3cccc(Cl)c3Cl)CC2)cc(-c2ccccc2)n1N1CCCCC1` [Example 13, N-(3-(4-(2,3-dichlorophenyl)piperazin-1-yl)propyl)-2-methyl-5-phenyl-1-(piperidin-1-yl)-1H-pyrrole-3-carboxamide], the IC50 was 795 nM in assay [1], 67.1 nM in assay [2] and 298 nM in assay [3].

Consider `COc1cccc(-c2cc(C(=O)NCCCN3CCN(c4cccc(Cl)c4Cl)CC3)c(C)[nH]2)c1` [Example 83, N-(3-(4-(2,3-dichlorophenyl)piperazin-1-yl)propyl)-5-(3-methoxyphenyl)-2-methyl-1H-pyrrole-3-carboxamide hydrochloride], for which the figures for the IC50 in assay [1], in assay [2] and in assay [3] were 20 nM, 20 nM and 59 nM, respectively.

Regarding `CCn1c(-c2ccc(OC)cc2)cc(C(=O)NCCCN2CCN(c3cccc(Cl)c3Cl)CC2)c1C` [Example 75, N-(3-(4-(2,3-dichlorophenyl)piperazin-1-yl)propyl)-1-ethyl-5-(4-methoxyphenyl)-2-methyl-1H-pyrrole-3-carboxamide hydrochloride], the IC50 came to 35 nM in assay [1], 141 nM in assay [2] and 100 nM in assay [3].

`Cc1[nH]c(-c2ccccc2)cc1C(=O)NCCCN1CCN(c2cccc(Cl)c2)CC1` [Example 23, N-(3-(4-(3-chlorophenyl)piperazin-1-yl)propyl)-2-methyl-5-phenyl-1H-pyrrole-3-carboxamide]: the IC50 in assay [1] is 280 nM; in assay [2], 245 nM; in assay [3] it was 92 nM.

As for `Cc1c(C(=O)NCCCN2CCN(c3cc(Cl)ccc3Cl)CC2)cc(-c2ccccc2)n1C` [Example 156, N-(3-(4-(2,5-Ddichlorophenyl)piperazin-1-yl)propyl)-1,2-dimethyl-5-phenyl-1H-pyrrole-3-carboxamide], the values for the IC50 in assay [1], in assay [2] and in assay [3] were 806 nM, 585 nM and 134 nM, respectively.

`Cc1cccc(N2CCN(CCCNC(=O)c3cc(-c4ccccc4)n(CC4CCCCC4)c3C)CC2)c1C` [Example 21, 1-(Cyclohexylmethyl)-N-(3-(4-(2,3-dimethylphenyl)piperazin-1-yl)propyl)-2-methyl-5-phenyl-1H-pyrrole-3-carboxamide]: the values for the IC50 in assay [1], in assay [2] and in assay [3] were 638 nM, 1230 nM and 352 nM, respectively.

Regarding `Cc1c(C(=O)NCCCN2CCN(c3cccc(Cl)c3Cl)CC2)cc(-c2ccc(Cl)cc2)n1C` [Example 62, 5-(4-chlorophenyl)-N-(3-(4-(2,3-dichlorophenyl)piperazin-1-yl)propyl)-1,2-dimethyl-1H-pyrrole-3-carboxamide hydrochloride], the IC50 in assay [1] was found to be 39 nM; in assay [2], 232 nM; in assay [3] it was 733 nM.

In the case of `CCCn1c(-c2ccncc2)cc(C(=O)NCCCN2CCN(c3cccc(Cl)c3Cl)CC2)c1C` [Example 107, N-(3-(4-(2,3-dichlorophenyl)piperazin-1-yl)propyl)-2-methyl-1-propyl-5-(pyridin-4-yl)-1H-pyrrole-3-carboxamide], the results for the IC50 in assay [1], in assay [2] and in assay [3] were 420 nM, 34 nM and 78 nM, respectively.

Turning to `CCCn1c(-c2ccccc2)cc(C(=O)NCCCN2CCN(c3ccc(OC)cc3)CC2)c1C` [Example 87, N-(3-(4-(4-methoxyphenyl)piperazin-1-yl)propyl)-2-methyl-5-phenyl-1-propyl-1H-pyrrole-3-carboxamide dihydrochloride], the figures for the IC50 in assay [1], in assay [2] and in assay [3] were 4830 nM, 647 nM and 628 nM, respectively.

`CCCn1c(-c2ccccc2)cc(C(=O)NCCCN2CCN(c3cccc(Cl)c3Cl)CC2)c1C` [Example 12, N-(3-(4-(2,3-dichlorophenyl)piperazin-1-yl)propyl)-2-methyl-5-phenyl-1-propyl-1H-pyrrole-3-carboxamide]: the IC50 in assay [1] was determined as 628 nM; in assay [2], 324 nM; in assay [3], 420 nM.

For the molecule `Cc1[nH]c(-c2ccccc2)c(C)c1C(=O)NCCN1CCN(c2cccc(Cl)c2Cl)CC1` [Example 76, N-(2-(4-(2,3-dichlorophenyl)piperazin-1-yl)ethyl)-2,4-dimethyl-5-phenyl-1H-pyrrole-3-carboxamide hydrochloride], the IC50 in assay [1] came out at 13 nM; in assay [2], 37 nM; in assay [3] it was 162 nM.

`Cc1c(C(=O)NCCCN2CCN(c3ccc(Cl)cc3Cl)CC2)cc(-c2ccccc2)n1C` [Example 154, N-(3-(4-(2,4-Dichlorophenyl)piperazin-1-yl)propyl)-1,2-dimethyl-5-phenyl-1H-pyrrole-3-carboxamide hydrochloride]: the IC50 was determined as 349 nM in assay [1], 213 nM in assay [2] and 23 nM in assay [3].
